Counter-ions that a name gives are not always drawn.
Columns and labels:
[1] = system: rat granuloma induced by cotton ball; test: rat granuloma induced by cotton ball; type: in vivo; conditions: orally, 100 mg·kg^−1, 7 days, Wistar rats
Protocol: Wistar rats (male, 165±15 g) were randomly divided into two groups (treatment and control) with 10 animals for each group. 10 mg of steriled cotton ball was planted into the two groins of the rat under the anaesthetized by ether. The animals were orally administrated with the compound for 7 days. At seventh day the cotton ball was taken out, dried by the oven and weighed. The hyperplasia of granuloma was evaluated by the increase of weight of dried cotton ball.

[2] = system: adjuvant arthritis in rat; test: adjuvant arthritis in rat (therapeutic effect); type: in vivo; conditions: orally 100 mg·kg^−1 during 19-25th day, SD rats
Protocol: SD rats (male, 190±10 g) were randomly divided into two groups (treatment and control) with 10 animals for each group. At 0 day 0.1 ml of Freund's complete adjuvant was intracutaneously injected into the right posterior foot. For therapeutic experiment the animals were orally administrated with the compound or solvent during 19-25th day. The perimeter of two ankle joint was measured and the inflammation of anterior foot, ear and tail were judged by scoring for every 3 days until 28 th day.

[3] = system: delayed hypersensitivity in rats; test: delayed hypersensitivity in rats (type II collagen ear challenge); type: in vivo, rat; conditions: Dose 100 mg · kg^−1 × 13 d, orally
Protocol: (§1) 0.1 ml of type II H collagen (2 mg·ml^−1) was intracutaneously injected into the hind foot of Wistar rat (male, 100±10 g) (d0). Seven days later 0.1 ml of type II collagen was intracutaneously injected into the root of tail. At 19th day (d19) the animals inflamed were selected to supply the experiment and randomly divided into two groups. […] The perimeter of the ankle joint of two hind feet, weight of body was measured and the systemic inflammation (including the toes of front and hind feet, ears and tails) was judged by scoring every 3 days. At 41th day 40 μl of 0.2% type II collagen was intracutaneously injected into the right ear. Twenty-four hr later the edema level was evaluated by weighing the ponderance of ear piece (diameter: 8 mm). At 42th day the blood was collected by decapitating. The serum was separated by centrifugating. The contents of antibody for anti-type II collagen, cytokine TNF-α, IL-1β in serum were determined by ELISA kit.

[4] = system: IgG in serum; test: IgG (antibody for anti-type II collagen) in serum of rat with arthritis induced by type II collagen; type: in vivo; conditions: Dose 100 mg · kg^−1 × 13 d, orally
Protocol: as §1

[5] = system: TNF-α in serum; test: TNF-α in serum of rat with arthritis induced by type II collagen (ELISA); type: in vivo; conditions: Dose 100 mg · kg^−1 × 13 d, orally
Protocol: as §1

[6] = system: rat paw swelling induced by carrageenan; test: rat paw swelling induced by carrageenan; type: in vivo; conditions: orally, 100 mg·kg^−1, Wistar rats
Protocol: Wistar rats (male, 180±20 g) were randomly divided into two groups (treatment and control) with 10 animals for each group. The animals were orally administrated with the compound or solvent, respectively. 1 hr later, 100 μl of 1% carrageenan was intracutaneously injected into the sole of right posterior foot. The perimeter of the ankle joint inflamed was measured at indicated time. The swelling level was evaluated by the difference of perimeters between the inflamed foot and non-inflamed foot.

[7] = system: rat arthritis induced by type II collagen; test: rat arthritis induced by type II collagen; type: in vivo; conditions: 100 mg · kg^−1 × 13 d, orally, Wistar rat
Protocol: as §1

[8] = molecular target: T1, PAF receptors of macrophages from mouse peritoneal cavity (Mus musculus, UniProt Q62035); test: competitive binding of [3H]-PAF to its receptors of macrophages from mouse peritoneal cavity; conditions: 4° C, 150 min, read-out: Ki, competition with [3H]-PAF binding
T1 construct: The cells in peritoneal cavity were collected after injection for 3-4 days; endogenous in cells; host or cells: adherent peritoneal macrophages of C57BL/6 mice (primary)
T1 sequence (Q62035 whole entry): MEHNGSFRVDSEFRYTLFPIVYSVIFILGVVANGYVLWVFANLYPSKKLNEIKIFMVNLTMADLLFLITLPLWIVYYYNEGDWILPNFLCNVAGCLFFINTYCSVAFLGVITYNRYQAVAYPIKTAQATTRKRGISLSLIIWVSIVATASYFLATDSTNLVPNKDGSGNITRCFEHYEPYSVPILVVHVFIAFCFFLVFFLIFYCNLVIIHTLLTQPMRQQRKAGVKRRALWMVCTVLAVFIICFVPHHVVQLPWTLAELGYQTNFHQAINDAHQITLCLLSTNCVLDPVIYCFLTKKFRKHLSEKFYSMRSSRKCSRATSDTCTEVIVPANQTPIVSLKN
Protocol: 4% of sodium mercaptoethanol was injected into C57BL/6 mouse peritoneal cavity to induce macrophages. The cells in peritoneal cavity were collected after injection for 3-4 days. 500 μl of suspension (5×10^5cells·ml^−1) was inoculated into 24-well culture plate which was placed into the incubator with 5% CO2 at 37° C for 2.5 hr. The non-adherent cells and serum in media were discarded. 490 μl of Tyrode-Hepes solution and 5 μl of [^3H]-PAF (final concentration: 2.8 nmol·L^−1) were added into each well. 5 μl of unlabeled PAF (5 μmol·L^1) was added into the well for the nonspecific binding. The series concentrations of compound were added into the well for the competitive binding and the corresponding volume of solvent was added into the wells for the total binding or the nonspecific binding. The reaction fluid was incubated at 4° C for 150 min and rinsed to wipe off the free labeled ligand. 300 μl of NaOH (0.3 mol·L^−1) was added to lyse the cells. The lysate fluid was transferred into a vial in which 7 ml of scintillation solution was added. The radioactivity strength was measured by scintillation counter.

[9] = system: production of NO in macrophages from mouse peritoneal cavity; test: production of NO in macrophages from mouse peritoneal cavity (LPS and PAF); type: cell-based; conditions: Macrophage, costimulated by LPS (1×10^−9 mol·L^−1) and PAF (1×10^−6 mol·L^−1), 24 hr, read-out: IC50, inhibition of the production of NO
Protocol: 4% of sodium mercaptoethanol was injected into C57BL/6 mouse peritoneal cavity to induce macrophages. The cells in peritoneal cavity were collected after injection for 3-4 days. 500 μl of cells were inoculated in the well of 24 wells plate which was placed in the CO2 incubator at 37° C. for 2.5 hr to make the cells adherent. The cells were rinsed by 1640 culture media. 495 μl of 1640 media containing irritant and 5 μl the compound or solvent were added into each well. The plate was incubated for 24 hr. The supernatant was taken out and mixed with the same volume of Griess agent. The reaction fluid was kept at room temperature for 10 min and the optical density was measured at 550 nm. The numbers read was transferred into the content of NO.

With `CCOC(=O)C1CCN(CCC(=O)/C=C/c2ccc(Cl)cc2)CC1` [Compound 3, 5-[(4-Ethoxycarbonyl)piperidyl]-1-(4-chlorophenyl)-1-penten-3-one hydrochloride] the “Inhibition (%) of rat granuloma” value [1] was 37.93%, the “Inhibition (%) of adjuvant arthritis” value ([2]; 21th day) was 31.9% and the “Inhibition (%) of adjuvant arthritis” value ([2]; 23th day) was 49.3%. The “Inhibition (%) of adjuvant arthritis” value ([2]; 25th day) was 54.5%, the “Inhibition (%) of adjuvant arthritis” value ([2]; 27th day) was 59.3% and the “Inhibition (%) of delayed hypersensitivity” value [3] was 21.2%. For the same compound, the “Inhibition (%) of production of IgG in serum” value [4] was 38.4%, the “inhibition (%) of production of TNF-α in serum” value [5] was 49.3% and the “Inhibition (%) of rat paw swelling” value ([6]; 1 h) was 49.7%. For the same compound, the “Inhibition (%) of rat paw swelling” value ([6]; 2 h) was 55.5%, the “Inhibition (%) of rat paw swelling” value ([6]; 3 h) was 44.2% and the “Inhibition (%) of rat paw swelling” value ([6]; 4 h) was 29.0%. For the same compound, the “Inhibition (%) of rat paw swelling” value ([6]; 5 h) was 19.4%, the “Inhibition (%) Score for systemic inflammation” value [7] was 52.6% and the “Inhibition (%) Swelling of left ankle joint” value [7] was 67.5%. The “Inhibition (%) Swelling of right ankle joint” value [7] was 68.8%, the Ki [8] was 4.4 µM and the IC50 [9] was 0.225 µM.

Source: patent publication US8524744B2, “Arylamine ketones, their preparation methods, the pharmaceutical composition containing them and their use” (Institute of Mataria Medica, Chinese Academy of Medical …, priority 2004, dated 2013)
